Test results as given in US20230338564A1, “NEODEGRADER CONJUGATES” (Orum Therapeutics, Inc., priority 2020, published 2023).
pIC50: −log10 of the molar value. Where two headings read alike, the source gives them in different places.

Tests used:
EOL-1 cell line = assay: In vitro antiproliferation assay, General Procedure 2 (CCK-8); type: cell-based, human
From the text: (§1) Cell Culture: Cell lines were obtained from the American Type Culture Collection (ATCC, Manassas, VA, USA) or Deutsche Sammlung von Mikroorganismen und Zellkulturen (DSMZ, Braunschweig, Germany) and maintained according to the culturing conditions specified by ATCC or DSMZ. Cells were thawed out and maintained in culture for at least two passages before proceeding with experimental conditions.
(§2) Cytotoxicity assays: For adherent cell lines, the cells were dissociated with enzyme-free PBS-based cell dissociation buffer (Gibco, USA) and plated on tissue culture treated 96-well flat bottom polystyrene plates (Costar, Corning, USA) at appropriate cell densities depending on doubling time of the cells. 18 hours after plating, cells were treated with test articles at appropriate concentrations starting at 100 nM and diluted in 4-fold serial dilutions. For suspension cell lines, the cells were seeded on the same day of treatment and cells were treated as described above. Adherent cells were treated for 5 days and suspension cells were treated for 3 days. Cell proliferation was assessed using the Cell Counting Kit-8 (CCK-8, Dojindo Laboratories, Japan) and measurements were obtained using the Promega GloMax Discover plate reader (Promega, USA). Data were analyzed using GraphPad Prism software (GraphPad Software, San Diego, CA). All data points were obtained from technical triplicates and the experiments were validated using three biological replicates.

OCI-M1 cell line = assay: as above; type: cell-based; conditions: Acute myeloid leukemia
From the text: as §1, §2

MOLM13 cell line = assay: as above; type: cell-based
From the text: as §1, §2

AGS cell line = assay: as above; type: cell-based; conditions: Homo sapiens, Gastric
From the text: as §1, §2

SKM-1 cell line = assay: as above; type: cell-based
From the text: as §1, §2

OCI-AML4 cell line = assay: as above; type: cell-based
From the text: as §1, §2

THLE2 cell line = assay: as above; type: cell-based; conditions: THLE-2; Human liver normal
From the text: as §1, §2

SK-BR-3 cell line = assay: as above; type: cell-based; conditions: Homo sapiens, Breast, read-out: IC50, SKBR3
From the text: as §1, §2

KE39 cell line = assay: as above; type: cell-based; conditions: Gastric
From the text: as §1, §2

Daudi cell line = assay: as above; type: cell-based; conditions: Homo sapiens, NHL
From the text: as §1, §2

SKOV3 cell line = assay: as above; type: cell-based; conditions: Homo sapiens, SK-OV-3; Ovarian
From the text: as §1, §2

OCI-AML2 cell line = assay: as above; type: cell-based
From the text: as §1, §2

JHUEM3 cell line = assay: as above; type: cell-based; conditions: Endometrial
From the text: as §1, §2

SU-DHL-8 cell line = assay: as above; type: cell-based; conditions: Homo sapiens, NHL
From the text: as §1, §2

RPMI7951 cell line = assay: as above; type: cell-based; conditions: Homo sapiens, RPMI-7951; Skin
From the text: as §1, §2

PL-21 cell line = assay: as above; type: cell-based; conditions: Acute myeloid leukemia
From the text: as §1, §2

THP-1 cell line = assay: as above; type: cell-based; conditions: Homo sapiens, AML
From the text: as §1, §2

LOVO cell line = assay: as above; type: cell-based; conditions: Homo sapiens, Colon
From the text: as §1, §2

ML-2 cell line = assay: as above; type: cell-based
From the text: as §1, §2

CMK cell line = assay: as above; type: cell-based; conditions: Homo sapiens, Acute megakaryocytic leukemia
From the text: as §1, §2

OCI-M2 cell line = assay: as above; type: cell-based; conditions: Acute myelocytic leukemia
From the text: as §1, §2

SNU182 cell line = assay: as above; type: cell-based; conditions: Homo sapiens, SNU-182; Liver
From the text: as §1, §2

Molp8 cell line = assay: as above; type: cell-based; conditions: Homo sapiens, MOLP-8; MM
From the text: as §1, §2

MV4-11 cell line = assay: as above; type: cell-based
From the text: as §1, §2

BT-474 cell line = assay: as above; type: cell-based; conditions: Homo sapiens, Breast, read-out: IC50, BT474
From the text: as §1, §2

NB-4 cell line = assay: as above; type: cell-based; conditions: Homo sapiens, Acute promyelocytic leukemia
From the text: as §1, §2

U251MG cell line = assay: as above; type: cell-based; conditions: Homo sapiens, U-251; Brain
From the text: as §1, §2

HL-60 cell line = assay: as above; type: cell-based
From the text: as §1, §2

[1] = test system: NCI-N87 gastric cancer cell line; assay: In vitro antiproliferation assay, General Procedure 1 (WST-8); type: cell-based; conditions: NCI-N87 cells; neoDegrader conjugates (DAR 8) versus comparators; FIGS. 16 and 17
Method: (§3) The ability of neoDegrader conjugates to inhibit cell growth was measured using in vitro anti-proliferation assay. […] Conjugates were diluted in complete cell growth medium using 4-fold serial dilutions and 100 µL was added per well. […] Viability of remaining cells was determined by colorimetric WST-8 assay (Dojindo Molecular Technologies, Inc., Rockville, MD, US). WST-8 was added to 10% of the final volume and plates were incubated at 37° C. in a humidified 5% CO2 incubator for 2-4 hours. Plates were analyzed by measuring the absorbance at 450 nm (A450) in a multi-well plate reader. Background A450 absorbance of wells with media and WST-8 only was subtracted from all values. The percent viability was calculated by dividing each treated sample value by the average value of wells with untreated cells. The percent viability value was plotted against the test sample concentration in a semi-log plot for each treatment. IC50 values were calculated automatically.

[2] = test system: SK-BR-3 breast cancer cell line; assay: as above; type: cell-based; conditions: SK-BR-3 cells; neoDegrader conjugates (DAR 8) versus comparators; FIGS. 7 and 8
Method: as §3

[3] = test system: HL-60 (acute myeloid leukemia) cell line; assay: as above; type: cell-based; conditions: AML; conjugates DAR 8, Mylotarg DAR not given
Method: as §3

PLB-985 cell line = assay: In vitro antiproliferation assay, General Procedure 2 (CCK-8); type: cell-based; conditions: leukemia, acute myeloid leukemia (derivative of HL-60)
From the text: as §1, §2

OCI-AML-5 cell line = assay: as above; type: cell-based; conditions: leukemia, acute myeloid leukemia
From the text: as §1, §2

OCI-AML-1 cell line = assay: as above; type: cell-based; conditions: leukemia, acute myeloid leukemia
From the text: as §1, §2

F-36P cell line = assay: as above; type: cell-based; conditions: leukemia, myelodysplastic syndrome
From the text: as §1, §2

AML-193 cell line = assay: as above; type: cell-based; conditions: leukemia, acute monocytic, monocyte
From the text: as §1, §2

Kasumi-6 cell line = assay: as above; type: cell-based; conditions: leukemia, acute myeloid, myeloblast
From the text: as §1, §2

SKNO-1 cell line = assay: as above; type: cell-based; conditions: leukemia, acute myeloid leukemia
From the text: as §1, §2

OCI-AML-6 cell line = assay: as above; type: cell-based; conditions: leukemia, acute myeloid leukemia
From the text: as §1, §2

Kopn-8 cell line = assay: as above; type: cell-based; conditions: leukemia, B cell precursor leukemia
From the text: as §1, §2

HNT-34 cell line = assay: as above; type: cell-based; conditions: leukemia, acute myeloid leukemia
From the text: as §1, §2

Molecule: O=C1CCC(N2Cc3cc(CNC(=O)Nc4ccc(CCO)c(Cl)c4)ccc3C2=O)C(=O)N1 (stereo not shown) [Compound P3, 1-(3-chloro-4-(2-hydroxyethyl)phenyl)-3-((2-(2,6-dioxopiperidin-3-yl)-1-oxoisoindolin-5-yl)methyl)urea]
- pIC50 (EOL-1 cell line; Homo sapiens, EOL1, Acute myeloid leukemia, read-out: IC50, EOL-1): 9.13
- pIC50 (OCI-M1 cell line): 6.98
- pIC50 (MOLM13 cell line; Homo sapiens, MOLM-13, AML, read-out: IC50, MOLM13): 8.07
- pIC50 (AGS cell line): 6.19
- pIC50 (SKM-1 cell line; Homo sapiens, SKM-1, Acute myeloid leukemia, read-out: IC50, SKM-1): 8.72
- pIC50 (OCI-AML4 cell line; Acute myeloid leukemia, read-out: IC50, OCI-AML4): 8.15
- pIC50 (THLE2 cell line): 7.22
- pIC50 (SK-BR-3 cell line): 7.46
- pIC50 (KE39 cell line): 6.19
- pIC50 (Daudi cell line): 8.04
- pIC50 (SKOV3 cell line): 7.00
- pIC50 (OCI-AML2 cell line; Homo sapiens, OCI-AML2, Acute myeloid leukemia, read-out: IC50, OCI-AML2): 7.54
- pIC50 (JHUEM3 cell line): 7.43
- pIC50 (SU-DHL-8 cell line): 7.74
- pIC50 (RPMI7951 cell line): 7.59
- pIC50 (PL-21 cell line): 8.68
- pIC50 (THP-1 cell line): 7.19
- pIC50 (LOVO cell line): 6.12
- pIC50 (ML-2 cell line; Homo sapiens, ML-2, Acute myelomonocytic leukemia, read-out: IC50, ML-2): 9.23
- pIC50 (CMK cell line): 7.91
- pIC50 (OCI-M2 cell line): 7.68
- pIC50 (SNU182 cell line): 8.05
- pIC50 (Molp8 cell line): 8.18
- pIC50 (MV4-11 cell line; Homo sapiens, MV4-11, Biphenotypic B myelomonocytic leukemia, read-out: IC50, MV4-11): 9.11
- pIC50 (BT-474 cell line): 8.20
- pIC50 (NB-4 cell line): 8.66
- pIC50 (U251MG cell line): 7.45
- pIC50 (HL-60 cell line; Homo sapiens, HL-60, AML, read-out: IC50, HL-60): 8.52

Molecule: Pertuzumab [reference compound]
- anti-proliferative activity compared, in words [1]: significantly less active
- anti-proliferative activity compared, in words [2]: significantly less active

Molecule: Mylotarg: approved agent, known antibody drug conjugate MYLOTARG
- pIC50 [3]: 11.96
- IC50 (EOL-1 cell line; Leukemia, Human eosinophilic leukaemia, read-out: IC50 (M), EoL-1): 6.87e-11 M
- IC50 (MOLM13 cell line; leukemia, acute,myeloid,leukemia suspension, read-out: IC50 (M), Molm-13): 2.7e-11 M
- IC50 (SKM-1 cell line; leukemia, myelodysplastic syndrome, read-out: IC50 (M), SKM-1): 2.24e-10 M
- IC50 (OCI-AML4 cell line; leukemia, acute myeloid leukemia, read-out: IC50 (M), OCI-AML-4): 2.37e-10 M
- IC50 (PLB-985 cell line): 7.14 nM
- IC50 (OCI-AML2 cell line; leukemia, acute myeloid leukemia, read-out: IC50 (M), OCI-AML-2): 3.94e-11 M
- IC50 (OCI-AML-5 cell line): 0.0783 nM
- IC50 (OCI-AML-1 cell line): 0.224 nM
- IC50 (ML-2 cell line; leukemia, acute myelomonocytic leukemia, read-out: IC50 (M), ML-2): 5.02e-11 M
- IC50 (F-36P cell line): > 20 nM
- IC50 (AML-193 cell line): > 20 nM
- IC50 (Kasumi-6 cell line): > 20 nM
- IC50 (SKNO-1 cell line): 13.4 nM
- IC50 (OCI-AML-6 cell line): > 20 nM
- IC50 (Kopn-8 cell line): 0.687 nM
- IC50 (MV4-11 cell line; leukemia, biphenotypic B myelomonocytic, read-out: IC50 (M), MV-4-11): 5.32e-11 M
- IC50 (HL-60 cell line; leukemia, acute promyelocytic, read-out: IC50 (M), HL-60): 3.26e-10 M
- IC50 (HNT-34 cell line): 3.77 nM
